The source of these data is article PMC10023787, “Trio-pharmacophore DNA-encoded chemical library for simultaneous selection of fragments and linkers” (Nature Communications, 2023).

Test [1] deals with T1, bovine carbonic anhydrase II (CAII) (Bos taurus, UniProt P00921).
T1 construct: purchased Sigma-Aldrich C7749
Briefly: Carbonic anhydrase II inhibition assay (esterase activity on p-nitrophenyl acetate). The test is classed as biochemical. The note with it: for remaining activity at 0.0001024 µM: 0.1024 nM compound; for remaining activity at 0.0001024 µM / remaining activity at 0.000512 µM / remaining activity at 0.00256 µM / remaining activity at 0.064 µM / remaining activity at 0.32 µM / remaining activity at 1.6 µM / remaining activity at 8 µM / remaining activity at 200 µM / remaining activity at 40 µM: source data of Fig. 2c, read-out: Normalized CA II Activity (Mean); for remaining activity at 0.000512 µM: 0.512 nM compound; for remaining activity at 0.00256 µM: 2.56 nM compound; for remaining activity at 0.064 µM: 64 nM compound; for remaining activity at 0.32 µM: 320 nM compound; for remaining activity at 1.6 µM: 1600 nM compound; for remaining activity at 8 µM: 8000 nM compound; for remaining activity at 200 µM: 200000 nM compound; for IC50: mean ± SE, three independent measurements, n.d: not detected; for remaining activity at 40 µM: 40000 nM compound. As for the experimental part:
CAII inhibition assay was performed to measure the inhibitory effect of re-synthesized CBS-conjugates. The esterase activity of CAII with a chromogenic substrate p-nitrophenyl acetate (pNPA) was measured. The rates of hydrolysis were determined by an increase of absorption at 410 nm after incubating different compounds with CAII. Re-synthesized compounds were diluted in a serial spanning mM to μM concentrations. […] 5 µl of pNPA (50 mM in 20% DMSO) was added to the plate right before the measurement. The absorption was measured at 37 °C each 10 sec for 15 min using a Beckman Coulter’s Paradigm Detection Platform (Brea, USA). The initial Vmax was obtained from the increase of absorption and the Vmax was plotted against the inhibitor concentrations and logistic fitting was performed to obtain IC50 values using Origin 2019b (OriginLab) software.

Another test has as its target T2, bovine trypsin (Bos taurus, UniProt P00760).
T2 construct: purchased Sigma-Aldrich T8003
T2 sequence (P00760 24-246): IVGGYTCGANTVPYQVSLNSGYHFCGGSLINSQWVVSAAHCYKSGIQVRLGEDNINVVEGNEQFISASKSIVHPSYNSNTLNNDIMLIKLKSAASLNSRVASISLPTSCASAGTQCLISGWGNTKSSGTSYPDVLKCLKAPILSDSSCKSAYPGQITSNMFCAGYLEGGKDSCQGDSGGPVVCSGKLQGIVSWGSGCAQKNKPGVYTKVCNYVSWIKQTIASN
Briefly: Trypsin inhibition assay (proteolytic activity on BApNA). The test is classed as biochemical. As for the experimental part: The inhibition by the benzamidine derivatives against trypsin was measured using an assay probing the enzyme proteolytic activity on the substrate Nα-Benzoyl-DL-arginine-4-nitroanilide hydrochloride (BApNA). […] 5 µl of BApNA solution (10 mM, dissolved in DMSO) were added immediately prior to the measurement. The final total volume was 100 µl per well. The measurements were performed in a Low Binding 384-well plate. The absorption was measured at 410 nm in intervals of 10 sec for 15 min at 37 °C using a Beckman Coulter’s Paradigm Detection Platform (Brea, USA). The measurements were performed in triplicate. The activity of trypsin was calculated by the hydrolysis rate of BApNA after subtraction of the background-hydrolysis rate. The curves were plotted as a function of the concentration of the inhibitor against the relative enzyme activity. Vmax was derived from the detected absorption signal for each concentration and logistic fitting was performed to obtain IC50 values using Origin 2019b (OriginLab).

T1 sequence (P00921 whole entry): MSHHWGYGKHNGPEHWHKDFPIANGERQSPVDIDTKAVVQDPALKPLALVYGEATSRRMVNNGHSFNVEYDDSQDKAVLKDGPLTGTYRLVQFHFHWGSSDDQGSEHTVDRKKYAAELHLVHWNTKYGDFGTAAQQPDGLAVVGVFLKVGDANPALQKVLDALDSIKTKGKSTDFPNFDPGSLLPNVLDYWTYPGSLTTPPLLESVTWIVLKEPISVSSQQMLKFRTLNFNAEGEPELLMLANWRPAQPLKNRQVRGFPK

Broadly, the IC50 is the point on the concentration scale where inhibition reaches its midpoint. Low values mean higher potency, high ones lower potency. For `NS(=O)(=O)c1ccc(NC(=O)/C=C/c2ccc(-c3ccccc3C(F)(F)F)o2)cc1` [Compound C-0], in test [1], the remaining activity at 0.0001024 µM was 93.3%, the remaining activity at 0.000512 µM was 94%, the remaining activity at 0.00256 µM came to 93.6% and the remaining activity at 0.064 µM stood at 84.9%. Further, in test [1], the remaining activity at 0.32 µM was 65.6%, the remaining activity at 1.6 µM was 45.7%, the remaining activity at 8 µM came out at 38.2% and the remaining activity at 200 µM came out at 20.9%. Further, the IC50 in test [1] came out at 830 nM.
Regarding `NS(=O)(=O)c1ccc(NCc2ccc(C(=O)NCCNC(=O)/C=C/c3ccc(-c4ccccc4C(F)(F)F)o3)cc2)cc1` [Compound C-1], in test [1], the remaining activity at 0.0001024 µM turned out to be 93.8%, the remaining activity at 0.000512 µM is 93.6%, the remaining activity at 0.00256 µM turned out to be 90.4% and the remaining activity at 0.064 µM came to 87.7%. For the same compound, in test [1], the remaining activity at 0.32 µM turned out to be 71.8%, the remaining activity at 1.6 µM was 43%, the remaining activity at 8 µM turned out to be 19.9% and the remaining activity at 40 µM is 8.01%. Further, in test [1], the remaining activity at 200 µM is 2.91% and 1290 ± 90 nM corresponded to half-maximal inhibition (IC50).
With `NS(=O)(=O)c1ccc(NC(=O)COc2ccccc2OCC(=O)NCCNC(=O)/C=C/c2ccc(-c3ccccc3C(F)(F)F)o2)cc1` [Compound C-2], in test [1], the remaining activity at 0.0001024 µM was 91.3%, the remaining activity at 0.000512 µM was 93.6%, the remaining activity at 0.00256 µM was 96.1% and the remaining activity at 0.064 µM was 83%. In test [1], the remaining activity at 0.32 µM is 61.4%, the remaining activity at 1.6 µM is 43.3%, the remaining activity at 8 µM was found to be 25.6% and the remaining activity at 40 µM stood at 15%. In test [1], the remaining activity at 200 µM was determined as 14.3% and the IC50 was 670 nM. Also, the “improvement in the IC50 value” in test [1] (compared with sulfanilamide) is listed as 20 fold.
Regarding `NS(=O)(=O)c1ccc(NC(=O)COCC(=O)NCCNC(=O)/C=C/c2ccc(-c3ccccc3C(F)(F)F)o2)cc1` [Compound C-5], in test [1], the remaining activity at 0.0001024 µM came out at 101%, the remaining activity at 0.000512 µM was 100%, the remaining activity at 0.00256 µM amounted to 96.7% and the remaining activity at 0.064 µM turned out to be 90.2%. Also, in test [1], the remaining activity at 0.32 µM was 78.3%, the remaining activity at 1.6 µM was 56.6%, the remaining activity at 8 µM stood at 33.3% and the remaining activity at 40 µM worked out at 19.1%. Moreover, in test [1], the remaining activity at 200 µM was determined as 11.8% and the IC50 worked out at 2020 ± 310 nM.
For `NS(=O)(=O)c1ccc(NC(=O)c2ccc(-n3cc(CCC(=O)NCCNC(=O)/C=C/c4ccc(-c5ccccc5C(F)(F)F)o4)nn3)cc2)cc1` [Compound C-4], in test [1], the remaining activity at 0.0001024 µM was determined as 96.8%, the remaining activity at 0.000512 µM was determined as 89%, the remaining activity at 0.00256 µM is 89.3% and the remaining activity at 0.064 µM was found to be 89.8%. In test [1], the remaining activity at 0.32 µM turned out to be 90.3%, the remaining activity at 1.6 µM is 65%, the remaining activity at 8 µM was 42.3% and the remaining activity at 40 µM worked out at 33.8%. In test [1], the remaining activity at 200 µM was found to be 9.19%.
`N=C(N)c1ccc(CNC(=S)Nc2cccc(I)c2)cc1` [Compound T-0]: at bovine trypsin (Concentration 0.1024 nM, fraction of uninhibited activity, read-out: mean (Figure 3c, dose-response, relative trypsin activity)), the remaining activity at 0.0001024 µM is 101%. Also, the remaining activity at 0.000512 µM on bovine trypsin (Concentration 0.512 nM, fraction of uninhibited activity, read-out: mean (Figure 3c, dose-response, relative trypsin activity)) came to 110%. Also, the remaining activity at 0.00256 µM at bovine trypsin (Concentration 2.56 nM, fraction of uninhibited activity, read-out: mean (Figure 3c, dose-response, relative trypsin activity)) worked out at 107%. Further, the remaining activity at 0.064 µM at bovine trypsin (Concentration 64 nM, fraction of uninhibited activity, read-out: mean (Figure 3c, dose-response, relative trypsin activity)) was 110%. At bovine trypsin (Concentration 320 nM, fraction of uninhibited activity, read-out: mean (Figure 3c, dose-response, relative trypsin activity)), the remaining activity at 0.32 µM stood at 102%. Moreover, on bovine trypsin (Concentration 1600 nM, fraction of uninhibited activity, read-out: mean (Figure 3c, dose-response, relative trypsin activity)), the remaining activity at 1.6 µM amounted to 97.5%. In addition, the remaining activity at 8 µM on bovine trypsin (Concentration 8000 nM, fraction of uninhibited activity, read-out: mean (Figure 3c, dose-response, relative trypsin activity)) was 74%. Besides, the remaining activity at 40 µM at bovine trypsin (Concentration 40000 nM, fraction of uninhibited activity, read-out: mean (Figure 3c, dose-response, relative trypsin activity)) was 23.7%. The remaining activity at 200 µM on bovine trypsin (Concentration 200000 nM, fraction of uninhibited activity, read-out: mean (Figure 3c, dose-response, relative trypsin activity)) came to 5.61%. Moreover, the remaining activity at 1000 µM at bovine trypsin (Concentration 1000000 nM, fraction of uninhibited activity, read-out: mean (Figure 3c, dose-response, relative trypsin activity)) was 1.19%. At bovine trypsin (compared with 4-aminomethyl benzamidine), the “improvement (of inhibitory effect)” value is on record as “approximately 9 fold”. Moreover, at bovine trypsin (mean ± SE, three independent measurements, n.d: not detected), the IC50 was 16600 ± 3100 nM.
